# Laboratory results: ChEMBL document CHEMBL3611969, “The effect of complexation of 3-formylrifamycin SV macrocyclic ether derivatives with metal cations and small nitrogen-containing organic molecules on antibacterial activity against S. aureus and S. epidermidis” (Bioorg Med Chem Lett, 2015)
# Columns and labels:
# [1] = test system: Staphylococcus epidermidis; experiment: Antibacterial activity against Staphylococcus epidermidis ATCC 12228 after 18 hrs by serial microdilution method in presence of isoniazid; type: functional; conditions: ATCC 12228, 18 h
# Staphylococcus aureus [2] = experiment: Antibacterial activity against Staphylococcus aureus ATCC 6538 after 18 hrs by serial microdilution method in presence of isoniazid; type: functional; conditions: ATCC 6538, 18 h
# [3] = test system: Staphylococcus epidermidis; experiment: Antibacterial activity against Staphylococcus epidermidis ATCC 12228 after 18 hrs by serial microdilution method in presence of 4-fluorobenzylamine; type: functional; conditions: ATCC 12228, 18 h
# [4] = test system: Staphylococcus epidermidis; experiment: Antibacterial activity against Staphylococcus epidermidis ATCC 12228 after 18 hrs by serial microdilution method in presence of 2-chlorobenzylamine; type: functional; conditions: ATCC 12228, 18 h
# Staphylococcus aureus [5] = experiment: Antibacterial activity against Staphylococcus aureus ATCC 4163 after 18 hrs by serial microdilution method in presence of 2-chlorobenzylamine; type: functional; conditions: ATCC 4163, 18 h
# Staphylococcus aureus [6] = experiment: Antibacterial activity against Staphylococcus aureus ATCC 25923 after 18 hrs by serial microdilution method in presence of histamine; type: functional; conditions: ATCC 25923, 18 h
# Staphylococcus aureus [7] = experiment: Antibacterial activity against Staphylococcus aureus ATCC 6538 after 18 hrs by serial microdilution method in presence of 4-fluorobenzylamine; type: functional; conditions: ATCC 6538, 18 h
# Staphylococcus aureus [8] = experiment: Antibacterial activity against Staphylococcus aureus ATCC 25923 after 18 hrs by serial microdilution method in presence of isoniazid; type: functional; conditions: ATCC 25923, 18 h
# [9] = test system: Staphylococcus epidermidis; experiment: Antibacterial activity against Staphylococcus epidermidis ATCC 12228 after 18 hrs by serial microdilution method in presence of histamine; type: functional; conditions: ATCC 12228, 18 h
# Staphylococcus aureus [10] = experiment: Antibacterial activity against Staphylococcus aureus ATCC 4163 after 18 hrs by serial microdilution method in presence of isoniazid; type: functional; conditions: ATCC 4163, 18 h
# Staphylococcus aureus [11] = experiment: Antibacterial activity against Staphylococcus aureus ATCC 25923 after 18 hrs by serial microdilution method in presence of 2-chlorobenzylamine; type: functional; conditions: ATCC 25923, 18 h
# [12] = test system: Staphylococcus epidermidis; experiment: Antibacterial activity against Staphylococcus epidermidis ATCC 49134 after 18 hrs by serial microdilution method; type: functional; conditions: ATCC 49134, 18 h
# [13] = Octanol-water partition coefficient, log P of the compound by UV-vis method; type: physicochemical
# Staphylococcus aureus [14] = experiment: Antibacterial activity against Staphylococcus aureus ATCC 4163 after 18 hrs by serial microdilution method in presence of 4-fluorobenzylamine; type: functional; conditions: ATCC 4163, 18 h
# [15] = Solubility of the compound in water at pH 7; type: physicochemical
# [16] = test system: Staphylococcus epidermidis; experiment: Antibacterial activity against Staphylococcus epidermidis ATCC 12228 after 18 hrs by serial microdilution method; type: functional; conditions: ATCC 12228, 18 h
# [17] = test system: Staphylococcus epidermidis; experiment: Antibacterial activity against Staphylococcus epidermidis ATCC 49134 after 18 hrs by serial microdilution method in presence of 2-chlorobenzylamine; type: functional; conditions: ATCC 49134, 18 h
# Staphylococcus aureus [18] = experiment: Antibacterial activity against Staphylococcus aureus ATCC 4163 after 18 hrs by serial microdilution method; type: functional; conditions: ATCC 4163, 18 h
# Staphylococcus aureus [19] = experiment: Antibacterial activity against Staphylococcus aureus ATCC 6538 after 18 hrs by serial microdilution method in presence of 2-chlorobenzylamine; type: functional; conditions: ATCC 6538, 18 h
# Staphylococcus aureus [20] = experiment: Antibacterial activity against Staphylococcus aureus ATCC 6538 after 18 hrs by serial microdilution method; type: functional; conditions: ATCC 6538, 18 h
# [21] = test system: Staphylococcus epidermidis; experiment: Antibacterial activity against Staphylococcus epidermidis ATCC 49134 after 18 hrs by serial microdilution method in presence of isoniazid; type: functional; conditions: ATCC 49134, 18 h
# [22] = test system: Staphylococcus epidermidis; experiment: Antibacterial activity against Staphylococcus epidermidis ATCC 49134 after 18 hrs by serial microdilution method in presence of histamine; type: functional; conditions: ATCC 49134, 18 h
# Staphylococcus aureus [23] = experiment: Antibacterial activity against Staphylococcus aureus ATCC 6538 after 18 hrs by serial microdilution method in presence of histamine; type: functional; conditions: ATCC 6538, 18 h
# [24] = test system: Staphylococcus epidermidis; experiment: Antibacterial activity against Staphylococcus epidermidis ATCC 49134 after 18 hrs by serial microdilution method in presence of 4-fluorobenzylamine; type: functional; conditions: ATCC 49134, 18 h
# Staphylococcus aureus [25] = experiment: Antibacterial activity against Staphylococcus aureus ATCC 25923 after 18 hrs by serial microdilution method; type: functional; conditions: ATCC 25923, 18 h
# Staphylococcus aureus [26] = experiment: Antibacterial activity against Staphylococcus aureus ATCC 4163 after 18 hrs by serial microdilution method in presence of histamine; type: functional; conditions: ATCC 4163, 18 h
# Staphylococcus aureus [27] = experiment: Antibacterial activity against Staphylococcus aureus ATCC 25923 after 18 hrs by serial microdilution method in presence of 4-fluorobenzylamine; type: functional; conditions: ATCC 25923, 18 h
MIC [12],logP [13],solubility [15],MIC [16],MIC (Staphylococcus aureus [18]),MIC (Staphylococcus aureus [20]),MIC (Staphylococcus aureus [25]),SMILES,also measured
0.5 µg/mL,1.12,< 50 µg/mL,0.5 µg/mL,2 µg/mL,1 µg/mL,2 µg/mL,CO[C@H]1/C=C/O[C@@]2(C)Oc3c(C)c(O)c4c(O)c(c(CNc5ccc6c(c5)OCCOCCOc5ccccc5OCCOCCO6)c(O)c4c3C2=O)NC(=O)/C(C)=C\C=C\[C@H](C)[C@H](O)[C@@H](C)[C@@H](O)[C@@H](C)[C@H](OC(C)=O)[C@@H]1C,MIC [1]: 0.5 µg/mL; MIC (Staphylococcus aureus [2]): 1 µg/mL; MIC [3]: 0.25 µg/mL; MIC [4]: 0.25 µg/mL; MIC (Staphylococcus aureus [5]): 0.25 µg/mL; MIC (Staphylococcus aureus [6]): 0.125 µg/mL; MIC (Staphylococcus aureus [7]): 0.25 µg/mL; MIC (Staphylococcus aureus [8]): 1 µg/mL; MIC [9]: 1.25 µg/mL; MIC (Staphylococcus aureus [10]): 1 µg/mL; MIC (Staphylococcus aureus [11]): 0.25 µg/mL; MIC (Staphylococcus aureus [14]): 0.25 µg/mL; MIC [17]: 0.25 µg/mL; MIC (Staphylococcus aureus [19]): 0.25 µg/mL; MIC [21]: 0.5 µg/mL; MIC [22]: 0.125 µg/mL; MIC (Staphylococcus aureus [23]): 0.125 µg/mL; MIC [24]: 0.25 µg/mL; MIC (Staphylococcus aureus [26]): 0.125 µg/mL; MIC (Staphylococcus aureus [27]): 0.25 µg/mL
> 4 µg/mL,,,> 4 µg/mL,> 4 µg/mL,> 4 µg/mL,> 4 µg/mL,NCc1ccc(F)cc1,
0.25 µg/mL,2.05,500 µg/mL,0.25 µg/mL,0.5 µg/mL,0.5 µg/mL,0.5 µg/mL,CO[C@H]1/C=C/O[C@@]2(C)Oc3c(C)c(O)c4c(O)c(c(CNC5CCOCC5)c(O)c4c3C2=O)NC(=O)/C(C)=C\C=C\[C@H](C)[C@H](O)[C@@H](C)[C@@H](O)[C@@H](C)[C@H](OC(C)=O)[C@@H]1C,

SMILES,MIC [12],logP [13],solubility [15],MIC [16],MIC (Staphylococcus aureus [18]),MIC (Staphylococcus aureus [20]),MIC (Staphylococcus aureus [25]),also measured
[Na+].[O-][Cl+3]([O-])([O-])[O-] [SODIUM PERCHLORATE],> 4 µg/mL,,,> 4 µg/mL,> 4 µg/mL,> 4 µg/mL,> 4 µg/mL,
